The text below walks through data of PMC4865820, “Branched Peptide, B2088, Disrupts the Supramolecular Organization of Lipopolysaccharides and Sensitizes the Gram-negative Bacteria” (Scientific Reports, 2016).

The subject of experiment [1] is P. aeruginosa DR4877/07. It counts as cell-based. The following applies: for FICI of B2088-antibiotic combination: lowest FICI reported, two independent duplicates. As for the experimental part: The synergism between peptides with conventional antibiotics was evaluated using checkerboard assays. For a comparison polymyxin B (PMB) was also tested against each antibiotic. From their stock solutions, two-fold dilutions of each antibiotic and peptide to 1× MIC were prepared in MHB. 50 μl of each peptide concentration was added into the wells of a 96-well polystyrene plates (SPL Life Sciences Co. Ltd, Korea) in a horizontal orientation and the same volume of each antibiotic concentration were then added in a vertical orientation. Bacterial suspensions were prepared in MHB to yield final cell density of ~10^6 CFU/ml and 100 μl of bacterial suspension was mixed with each peptide-antibiotic combinations. This procedure was repeated for wells containing 200 μl of peptide alone and 200 μl of antibiotic alone in various concentrations. The positive and negative controls contained 200 μl of inoculum and MHB alone respectively. The plates were incubated at 37 °C for 24 hours and the optical density at 600 nm (OD600) was monitored as before. Fractional inhibitory concentration index (FICI) for all antibiotic- peptide combinations was calculated through the summation of (MIC of peptide in the combination/ MIC of peptide alone) and (MIC of antibiotics in combination/MIC of antibiotic alone). The experiments were performed in two independent duplicates and the combinations that gave the lowest FICI values was reported.

The subject of experiment [2] is LPS (E. coli serotype 055:B5). As to the kind of experiment: BODIPY TR cadaverine (BC) displacement assay with LPS. It counts as binding. The source says:
To investigate the interaction of B2088 with LPS, we performed the BODIPY TR cadaverine (BC) displacement assay reported by Wood et al.[22]. The probe binds to the lipid A part of the LPS with moderate affinity and can be displaced by putative LPS-binding molecules. The method was used to probe the affinity of polycationic molecules and LPS binding proteins. First, we determined the affinity of polymyxin B (PMB), a lipopeptide cyclic antibiotic which has a high affinity for LPS. […] Figure 1a,b show the concentration-dependent displacement of LPS/lipid A-bound BC upon addition of B2088. […] To confirm the importance of branching, we determined the BC50 for a linear retrodimer having the amino acid sequence, […] (Fig. 1d). The determined value was 2-fold higher (3.9 ± 0.1 μM) than that of B2088, confirming a weaker affinity of the linear peptide.
The BC displacement assay was used to determine the ability of each peptide to bind to LPS. The florescent probe, BODIPY TR cadaverine (BC) was purchased from Molecular Probes/ Invitrogen (USA). A stock solution containing 1 mg/ml of LPS (E. coli serotype 055:B5) was prepared in dimethyl sulfoxide (DMSO) and another stock solution containing 1 mg/ml of BC dye was prepared in 5 mM HEPES buffer (pH 7.4). The optimum saturation concentration of BC:LPS ratio was standardized following the protocol provided by Wood et al. (22). From the BC stock, 240 μl was mixed with 500 μl from the LPS stock solution in 5 mM HEPES buffer (pH 7.4) to prepare 20 ml of BC:LPS mixture. Two-fold serial dilutions of each peptide in 5 mM HEPES buffer (pH 7.4) was prepared from their 1 mg/ml stock solutions to obtain a final range of 0.02–25.6 μM. The BC:LPS mixture was added to 100 μl of each peptide congener in a 1:1 ratio in each well of a 96-well black Costar™ polystyrene microtitre plate (Corning Incorporated, NY, USA). The maximum fluorescence intensity (Fmax) was determined using a mixture containing 100 μl PMB (50 μg/ml) and 100 μl BC:LPS solution, as PMB is considered the ‘gold standard’ for LPS-sequestering agents. The minimum fluorescence intensity (F0) was measured using 200 μl of BC:LPS mixture to determine the background noise for this experiment. Fluorescence measurements for each peptide (F) were determined using a microplate reader (Model: TECAN Infinite 200, Austria) with excitation and emission wavelengths set at 580 nm and 620 nm respectively. The percentage of BC displacement was then calculated using the formula: […]
The experiments were performed in duplicates and the effective concentration required for 50% displacement of BC dye (ED50) from LPS with respect to PMB was determined by curve fitting using Graphpad Prism (CA, USA). A higher ED50 value for the peptide indicates a lower affinity for LPS.

Experiment [3] concerns P. aeruginosa DR4877/07. Description: microbe, parasite or virus in culture. The following applies: for MIC: Pseudomonas aeruginosa, DR4877/07, 24 h, read-out: MIC of antibiotics. As for the experimental part: MIC of each peptide was determined using the microdilution method in a 96 well microtitre plates (SPL Life Sciences Co., Ltd, Korea). Two-fold serial dilutions of each peptide in Mueller-Hinton Broth (MHB) was prepared from a 1 mg/ml stock solution of the peptide in the same broth, to obtain a final concentration in the range of 0.0976–50 μg/ml in each well. Bacterial suspensions (P. aeruginosa ATCC 27853, P. aeruginosa 4877, P. aeruginosa 23155, K. pneumoniae ATCC 10031 and K. pneumoniae 4299) were prepared by suspending the overnight cultured bacteria in saline and adjusting the inoculum to ~10^8 colony forming units (CFU) per ml. A further 150-fold dilution was then prepared in MHB to achieve a final cell density of 10^5–10^6 CFU/ml. In each well, 100 μl of inoculum was mixed with the equal volume of peptides at their 2× concentration. Positive and negative controls contained 200 μl of inoculum (without any peptide) and broth alone (no peptide/inoculum) respectively. Another negative control in which MHB containing 200 μl of peptide alone in its highest concentration tested (50 μg/ml) was also included to ensure that the optical density measured in the test wells was not due to turbidity of the peptides in solution. The 96 well polystyrene plates were then incubated at 37 °C for 24 h and the optical density at 600 nm (OD600) was measured every 30 min continuously using a TECAN microplate reader (TECAN Infinite 200, Austria).

The mark [4] stands for this setting: MIC of B2088 6.25 μg/ml, MHB, ~10^6 CFU/ml, 37 °C, 24 h.

With RGRKVVRRKKRRVVKRGR [linear retrodimer], in the experiment with P. aeruginosa DR4877/07 [1] (additive effect), the FICI with chloramphenicol was 1, the FICI with gatifloxacin is reported as 1 and the FICI with tobramycin was 1. Besides, the “ED50 (50% displacement of BC dye from LPS; also called BC50)” value in experiment [2] (5 mM HEPES pH 7.4, fluorescence ex 580/em 620 nm, with respect to PMB, duplicates) came out at 3.9 ± 0.1 µM. Also, the “BC50 fold higher than that of B2088” value in experiment [2] (LPS-bound BC) is recorded as 2 fold.
For the molecule `[H]/N=C(/N)N[C@H]1[C@H](O)[C@@H](O)[C@H](O[C@@H]2O[C@@H](C)[C@](O)(C=O)[C@H]2O[C@@H]2O[C@@H](CO)[C@H](O)[C@@H](O)[C@@H]2NC)[C@@H](N/C(N)=N\[H])[C@@H]1O` [Streptomycin, reference compound], in the experiment with P. aeruginosa DR4877/07 [1] (setting [4]), the “MIC of antibiotics in the presence of ¼× sub-MIC of B2088” value (“MIC … of ¼× sub-MIC of B2088” below) is 100 µg/mL, the “MIC of antibiotics in the presence of ½× sub-MIC of B2088” value (from here on “MIC … of ½× sub-MIC of B2088”) came out at 50 µg/mL and the “MIC of antibiotics in the presence of ⅛× sub-MIC of B2088” value is 100 µg/mL. The “FICI of B2088-antibiotic combination” value with P. aeruginosa DR4877/07 [1] was found to be 0.75. Besides, the MIC in the experiment on P. aeruginosa DR4877/07 [3] was 200 µg/mL.
`C[C@H]1COc2c(N3CCN(C)CC3)c(F)cc3c(=O)c(C(=O)O)cn1c23` [Levofloxacin, reference compound]: the “MIC … of ½× sub-MIC of B2088” value with P. aeruginosa DR4877/07 [1] (setting [4]) was found to be 12.5 µg/mL. Also, the “FICI of B2088-antibiotic combination” value with P. aeruginosa DR4877/07 [1] is given as 0.75. In addition, the MIC in the experiment on P. aeruginosa DR4877/07 [3] came to 50 µg/mL.
`CC[C@H]1OC(=O)[C@H](C)[C@@H](O[C@H]2C[C@@](C)(OC)[C@@H](O)[C@H](C)O2)[C@H](C)[C@@H](O[C@@H]2O[C@H](C)C[C@H](N(C)C)[C@H]2O)[C@](C)(O)C[C@@H](C)C(=O)[C@H](C)[C@@H](O)[C@]1(C)O` [Erythromycin, reference compound]: the “MIC … of ½× sub-MIC of B2088” value in the experiment on P. aeruginosa DR4877/07 [1] (setting [4]) came out at 50 µg/mL. The “FICI of B2088-antibiotic combination” value with P. aeruginosa DR4877/07 [1] is listed as 1.0. Further, in the experiment on P. aeruginosa DR4877/07 [3], the MIC was determined as 100 µg/mL.
`NC[C@H]1O[C@H](O[C@H]2[C@H](O)[C@@H](O[C@H]3O[C@H](CO)[C@@H](O)[C@H](N)[C@H]3O)[C@H](N)C[C@@H]2N)[C@H](O)[C@@H](O)[C@@H]1O` [Kanamycin, reference compound]: in the experiment with P. aeruginosa DR4877/07 [1] (setting [4]), the “MIC … of ¼× sub-MIC of B2088” value was found to be 1600 µg/mL and the “MIC … of ½× sub-MIC of B2088” value is 800 µg/mL. Moreover, the “FICI of B2088-antibiotic combination” value with P. aeruginosa DR4877/07 [1] was 0.75. In addition, the “Fold decrease in the MIC of antibiotics at sub-lethal/sub-inhibitory concentrations of B2088” value in the experiment with P. aeruginosa DR4877/07 [1] (multidrug resistant P. aeruginosa 4877) is 4 fold. In the experiment on P. aeruginosa DR4877/07 [3] (antibiotic alone, MHB, 37 °C, 24 h, OD600), the MIC of antibiotics was 3200 µg/mL.
`C[C@@H](O)[C@H]1C(=O)N2C(C(=O)O)=C(SCCN=CN)C[C@H]12` [Imipenem, reference compound]: in the experiment with P. aeruginosa DR4877/07 [1] (setting [4]), the “MIC … of ¼× sub-MIC of B2088” value was 0.195 µg/mL and the “MIC … of ½× sub-MIC of B2088” value turned out to be 0.0975 µg/mL. For the same molecule, the MIC with P. aeruginosa DR4877/07 [3] worked out at 0.78 µg/mL.
With `CCn1cc(C(=O)O)c(=O)c2ccc(C)nc21` [Nalidixic acid, reference compound], in the experiment with P. aeruginosa DR4877/07 [1], the “FICI of polymyxin B-antibiotic combination” value came to 1.0 and the “FICI of B2088-antibiotic combination” value came to 0.63. In the experiment with P. aeruginosa DR4877/07 [1] (setting [4]), the “MIC … of ½× sub-MIC of B2088” value is 400 µg/mL. Also, the MIC in the experiment on P. aeruginosa DR4877/07 [3] amounted to 3200 µg/mL.
For the molecule `O=C(O)c1cn(C2CC2)c2cc(N3CCNCC3)c(F)cc2c1=O` [Ciprofloxacin], the MIC in the experiment with P. aeruginosa DR4877/07 [3] turned out to be 12.5 µg/mL.
